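In this assay, cells in 96-well plates receive the compound at five concentrations for 48 hours. Endpoints are linearly interpolated between the surrounding concentrations. Definition used: TGI = concentration required for complete inhibition of growth.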
How the values were obtained:
Experiment in all cases: DTP human tumour cell line panel, 48 h
M14 melanoma = test system: M14 melanoma
NCI-H522 lung = test system: NCI-H522 lung
SR leukemia = test system: SR leukemia
LOX IMVI melanoma = test system: LOX IMVI melanoma
DMS 114 small cell lung = test system: DMS 114 small cell lung
NCI-H226 lung = test system: NCI-H226 lung
RXF-631 renal = test system: RXF-631 renal
786-0 renal = test system: 786-0 renal
HT29 colon = test system: HT29 colon
ACHN renal = test system: ACHN renal
CCRF-CEM leukemia = test system: CCRF-CEM leukemia
SK-MEL-5 melanoma = test system: SK-MEL-5 melanoma
KM20L2 colon = test system: KM20L2 colon
SW-620 colon = test system: SW-620 colon
UO-31 renal = test system: UO-31 renal
M19-MEL melanoma = test system: M19-MEL melanoma
A549 NSCLC = test system: A549 NSCLC
NCI-H23 lung = test system: NCI-H23 lung
HCC-2998 colon = test system: HCC-2998 colon
TK-10 renal = test system: TK-10 renal
XF 498 CNS = test system: XF 498 CNS
MOLT-4 leukemia = test system: MOLT-4 leukemia
SNB-75 CNS = test system: SNB-75 CNS
MALME-3M melanoma = test system: MALME-3M melanoma
SNB-19 CNS = test system: SNB-19 CNS
SK-MEL-2 melanoma = test system: SK-MEL-2 melanoma
IGROV1 ovarian = test system: IGROV1 ovarian
CAKI-1 renal = test system: CAKI-1 renal
COLO 205 colon = test system: COLO 205 colon
K-562 leukemia = test system: K-562 leukemia
A498 renal = test system: A498 renal
RXF 393 renal = test system: RXF 393 renal
OVCAR-4 ovarian = test system: OVCAR-4 ovarian
UACC-257 melanoma = test system: UACC-257 melanoma
EKVX NSCLC = test system: EKVX NSCLC
RPMI-8226 leukemia = test system: RPMI-8226 leukemia
SF-268 CNS = test system: SF-268 CNS
U251 CNS = test system: U251 CNS
KM12 colon = test system: KM12 colon
HCT-116 colon = test system: HCT-116 colon
HL-60(TB) leukemia = test system: HL-60(TB) leukemia
LXFL 529 NSCLC = test system: LXFL 529 NSCLC
DLD-1 colon = test system: DLD-1 colon
UACC-62 melanoma = test system: UACC-62 melanoma
DMS 273 small cell lung = test system: DMS 273 small cell lung
SF-295 CNS = test system: SF-295 CNS
HOP-62 NSCLC = test system: HOP-62 NSCLC
HCT-15 colon = test system: HCT-15 colon
SF-539 CNS = test system: SF-539 CNS
SN12C renal = test system: SN12C renal
OVCAR-8 ovarian = test system: OVCAR-8 ovarian
SK-OV-3 ovarian = test system: SK-OV-3 ovarian
OVCAR-3 ovarian = test system: OVCAR-3 ovarian
NCI-H460 lung = test system: NCI-H460 lung
OVCAR-5 ovarian = test system: OVCAR-5 ovarian
SK-MEL-28 melanoma = test system: SK-MEL-28 melanoma
SNB-78 CNS = test system: SNB-78 CNS
HOP-92 NSCLC = test system: HOP-92 NSCLC

Measured: TGI

CNS(=O)(=O)NN(C)S(=O)(=O)c1ccc(OC)cc1
not listed: SK-OV-3 ovarian | OVCAR-3 ovarian | NCI-H460 lung | OVCAR-5 ovarian | SK-MEL-28 melanoma | SNB-78 CNS | HOP-92 NSCLC
> 100 µM: all other assays above

O=c1c2ccccc2nc(-c2ccccc2Cl)n1NCC1(O)OCC(O)C(O)C1O (stereo not drawn)
not listed: NCI-H226 lung | HCC-2998 colon | IGROV1 ovarian | DLD-1 colon | HOP-62 NSCLC | HOP-92 NSCLC
> 100 µM: all other assays above

N#CC(C#N)=C(C(C#N)C#N)C(C#N)C#N
not listed: ACHN renal | SK-MEL-2 melanoma | SK-MEL-28 melanoma
> 100 µM: all other assays above
